Reference: a compilation of properties of binary mixtures (doi:10.1021/je990207b)

Assay: excess molar enthalpy (molar enthalpy of mixing); xn = mol fraction of the nth substance listed
Conditions: 298.15 K, 100 kPa

CC(=O)O + CC#N
Conditions | excess molar enthalpy [kcal/mol]
x2 = 0.0927 | 0.023
x2 = 0.1409 | 0.0359
x2 = 0.2787 | 0.0588
x2 = 0.381 | 0.0696
x2 = 0.571 | 0.0679
x2 = 0.7416 | 0.0474
x2 = 0.809 | 0.0379
x2 = 0.8722 | 0.0268
x2 = 0.915 | 0.019

CC(C)C(=O)O + CC#N
Conditions | excess molar enthalpy [kcal/mol]
x2 = 0.187 | 0.116
x2 = 0.2347 | 0.141
x2 = 0.2938 | 0.172
x2 = 0.3508 | 0.192
x2 = 0.3982 | 0.206
x2 = 0.4547 | 0.22
x2 = 0.5013 | 0.222
x2 = 0.5479 | 0.221
x2 = 0.6046 | 0.214
x2 = 0.6531 | 0.201
x2 = 0.6827 | 0.189
x2 = 0.7273 | 0.172
x2 = 0.8013 | 0.138
x2 = 0.9158 | 0.0654

CC(C)CC(=O)O + CC#N
Conditions | excess molar enthalpy [kcal/mol]
x2 = 0.0895 | 0.0454
x2 = 0.1287 | 0.0645
x2 = 0.1972 | 0.0978
x2 = 0.3371 | 0.151
x2 = 0.4026 | 0.175
x2 = 0.52 | 0.205
x2 = 0.5902 | 0.21
x2 = 0.6283 | 0.207
x2 = 0.7177 | 0.189
x2 = 0.7835 | 0.161
x2 = 0.8207 | 0.136
x2 = 0.8529 | 0.12
x2 = 0.8744 | 0.104
x2 = 0.9379 | 0.0492

CCC(=O)O + CC#N
Conditions | excess molar enthalpy [kcal/mol]
x2 = 0.156 | 0.0696
x2 = 0.2134 | 0.0896
x2 = 0.278 | 0.11
x2 = 0.3407 | 0.127
x2 = 0.399 | 0.139
x2 = 0.4626 | 0.148
x2 = 0.5057 | 0.151
x2 = 0.5993 | 0.145
x2 = 0.6517 | 0.136
x2 = 0.7248 | 0.118
x2 = 0.8046 | 0.0932

CCCC(=O)O + CC#N
Conditions | excess molar enthalpy [kcal/mol]
x2 = 0.089 | 0.0382
x2 = 0.1448 | 0.0632
x2 = 0.1884 | 0.0809
x2 = 0.2668 | 0.108
x2 = 0.4626 | 0.15
x2 = 0.523 | 0.155
x2 = 0.5889 | 0.152
x2 = 0.6417 | 0.147
x2 = 0.6605 | 0.143
x2 = 0.686 | 0.138
x2 = 0.7141 | 0.131
x2 = 0.7884 | 0.105
x2 = 0.8201 | 0.0917
x2 = 0.8728 | 0.0713
x2 = 0.9067 | 0.0519
x2 = 0.9377 | 0.031

CCCCC(=O)O + CC#N
Conditions | excess molar enthalpy [kcal/mol]
x2 = 0.1197 | 0.0643
x2 = 0.1899 | 0.1
x2 = 0.2311 | 0.12
x2 = 0.2782 | 0.139
x2 = 0.4131 | 0.183
x2 = 0.4825 | 0.199
x2 = 0.5404 | 0.205
x2 = 0.6211 | 0.202
x2 = 0.637 | 0.2
x2 = 0.6655 | 0.195
x2 = 0.7138 | 0.182
x2 = 0.7441 | 0.173
x2 = 0.8076 | 0.14
x2 = 0.8487 | 0.115
x2 = 0.9029 | 0.0725
x2 = 0.9603 | 0.0285
